The values below come from patent publication US5968791A, “Plant lysophosphatidic acid acyltransferases” (Calgene, Inc., priority 1995, dated 1999).

One assay relates to bay LPAAT. Put plainly: LPAAT activity assay, California bay P2 membrane preparation. In kind it is biochemical, Umbellularia californica. Conditions: for detergent concentration in the assay that inhibits long-chain LPAAT activity completely: 18:1-CoA and 18:1-LPA, concentrations w/v; for detergent concentration tolerated without complete loss of activity: 1-hour exposure, diluted prior to assay.

The next assay relates to Rapeseed LPAAT. Put plainly: LPAAT activity assay, rapeseed P2 membrane preparation. In kind it is biochemical, Brassica napus. The conditions noted are these: acyl-CoA donor varied, acceptor 12:0-LPA. The procedure:
(§1) To assay for LPAAT activity, the sample is incubated with lysophosphatidic acid (LPA) and acyl-coenzyme A (acyl-CoA) substrates in buffered solution. The acyl substituents of the two substrates are chosen to correspond with the specificity of the enzyme being measured. For example, to measure activity of an LPAAT having preference for medium-chain substrates, lauroyl-LPA (lauroyl-lysophosphatidic acid) and lauroyl-CoA may be used, to measure activity of an LPAAT preferring longer-chain acyl groups, oleoyl-LPA and oleoyl-CoA may be used, to measure activity of an LPAAT preferring very-long chain substrate, erucyl-LPA and erucyl-CoA may be used, and so on, depending upon the type of LPAAT to be tested. The acyl group of one substrate is radioactively labeled in order to detect the product formed. In the examples which follow the acyl substituent of the acyl-CoA substrate is radiolabeled with ^14 C in the carboxyl group. LPAAT activity results in transfer of this acyl group from the acyl-CoA "donor" substrate to the LPA "acceptor" substrate, converting the latter into the product, phosphatidic acid (PA). LPAAT activity is measured as the amount of radioactive product formed in a given assay time. The PA product is radioactive as a result of the transferred radiolabeled acyl group at the central carbon atom of the molecule, and the quantity of PA formed may be determined by measuring radioactivity of the PA fraction. For this measurement, the PA is first separated from the acyl-CoA substrate by solvent partitioning, or by thin-layer chromatography (TLC).
(§2) 20 μl of the sample to be assayed for LPAAT activity is mixed with 217.5 μl of an assay ingredient mixture in a 4-ml, screw-cap vial. […] The incubation takes place in a water bath at 30° C., for 20-30 minutes.
(§3) To stop the assay, 0.25 ml of 1M KCl in 0.2M H3 PO4 is added to the vial. At this point, 40 μl BSA (bovine serum albumin, fraction V) at 1 mg/ml are added, followed by 0.75 ml of a solution of 67 μg/ml unlabeled PA (acting as a "carrier" to facilitate partitioning) in chloroform/methanol (2:1, v/v). The chain lengths of the PA acyl groups are chosen to correspond to those used in the assay substrates. Upon thorough mixing of these components the radiolabeled PA product of the LPAAT reaction partitions into the organic phase and away from the unreacted acyl-CoA and LPA. The vial is centrifuged briefly at low speed to facilitate the separation of organic (lower) and aqueous (upper) phases. The aqueous phase is then removed and discarded. The total radioactivity extracted into the organic phase is determined by liquid scintillation counting; a 100 μl sample of the organic phase is transferred to a 20 ml scintillation vial and allowed to dry, and scintillation fluid (3-5 ml) is added to the vial. The radioactivity of the sample, after subtraction of the "minus-enzyme" or "minus-LPA" radioactivities, is taken as an approximate indication of the amount of PA formed in the LPAAT-catalyzed reaction and therefore of LPAAT activity.
A more accurate estimation of the LPAAT activity may be obtained by separating the PA product from these contaminants by TLC. The remaining organic phase is applied to a silica TLC plate. […] After the plate has dried, the distribution of radioactivity is visualized and quantitated using an AMBIS radioanalytic imaging system (AMBIS Systems Inc., San Diego, Calif.). From prior application of standard lipid components the Rf of the PA is known. The radioactivity associated with the PA spot is expressed as a percentage of the total radioactivity of the assay sample loaded on the plate. This ratio provides an indication of the proportion of the scintillation counts which represent the PA product, and may be used to correct the counts to obtain the total PA radioactivity formed in the assay.
A P2 membrane homogenate from immature embryos of developing rapeseed (Brassica napus) seeds is prepared essentially as described above, except as noted below.

The target in assay [1] is T1, coconut medium-chain LPAAT (Cocos nucifera, UniProt Q42670).
T1 construct: The frozen coconut P2 preparation is thawed and diluted in a volume of P2 Buffer; from tissue; host or cells: immature coconut endosperm, solubilized S3 supernatant of P2 membranes
T1 sequence (Q42670 1-308): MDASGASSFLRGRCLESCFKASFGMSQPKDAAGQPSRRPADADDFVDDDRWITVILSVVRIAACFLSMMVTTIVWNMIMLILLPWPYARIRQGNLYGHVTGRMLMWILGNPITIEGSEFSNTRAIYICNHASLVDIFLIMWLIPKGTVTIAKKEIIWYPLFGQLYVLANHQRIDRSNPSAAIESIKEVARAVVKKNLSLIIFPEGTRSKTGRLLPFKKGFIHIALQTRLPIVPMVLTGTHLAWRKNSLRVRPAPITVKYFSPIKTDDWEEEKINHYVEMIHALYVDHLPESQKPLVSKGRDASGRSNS
Put plainly: Assay of solubilized coconut LPAAT (S3 preparation) with phospholipid activation. In kind it is biochemical. Conditions: for effect on LPAAT activity of the coconut S3 preparation: added at 1 mM; for reduction of LPAAT activity of the coconut S3 preparation: added at 10 mM. How it is done:
After solubilization of LPAAT protein from plant membranes as described below, modification of the above assay conditions is required in order to detect maximum LPAAT activity. This is especially important after the solubilized LPAAT has been chromatographed on at least one column. The important modification to the assay is the addition, at the start of the assay procedure, of 1 μl of a concentrated phospholipid (PL) solution to 20 μl of the LPAAT-containing sample in a glass vial. The high concentrations of CHAPS (at least 1% w/v) and NaCl (typically 0.5M or greater) in the solubilized LPAAT preparation aid in dispersal of the phospholipids. The phospholipid solution is obtained by sonicating crude soybean phospholipids (L-phosphatidylcholine from soybean, "Type IVs" obtained from Sigma Chemical Company, St. Louis) at 50 mg/ml in 0.5% (w/v) CHAPS (3-[(3-cholamidopropyl) -dimethylammonio]-1-propane-sulfonate) until a uniform suspension is obtained.
The remaining assay ingredients (as described above), with the exception of the acyl-CoA substrate, are then added as 219 μl of a mixture. […] Radiolabeled acyl-CoA (10 μl, or an appropriately adjusted volume as indicated above) is added to start the LPAAT-catalyzed reaction and the rest of the assay procedure is completed as described above.
All steps are carried out at 0-4° C. The frozen coconut P2 preparation is thawed and diluted in a volume of P2 Buffer to achieve a protein concentration of 0.94 mg/ml P2 protein. Protein concentration is determined by Coomassie dye staining relative to a bovine serum albumin standard. The P2 membrane suspension is then diluted with an equal volume of Solubilization Buffer (50 mM HEPES-NaOH, pH 7.5, […], 20% (w/v) glycerol, 4.5% (w/v) CHAPS, 100 μM Pefabloc, 1 μM leupeptin, 1 μM Pepstatin A, and 5 mM β-ME), resulting in final concentrations of 1M NaCl, 2.25% (w/v) detergent, and 0.47 mg/ml protein. These component concentrations, and the resulting detergent/protein ratio of 48/1 (w/w), are important for optimal solubilization. The preparation is then incubated on ice for 30 minutes with occasional, gentle stirring, followed by centrifugation at 252,000×g for 2 hours. The resulting supernatant fraction (S3) is filtered through buffer-wetted Miracloth, and may then be stored frozen (-70) with only slight loss of activity. Optimally, it is applied to chromatography columns without an intervening freeze-thaw cycle.
Assay of the coconut medium-chain LPAAT activity after solubilization (S3 preparation) and reactivation with PLs, using different acyl-CoA substrates, provides the following results (Table 3). In all these assays the acceptor substrate is 12:0-LPA.

In the next assay the target is T2, coconut LPAAT (Cocos nucifera, UniProt Q42670).
T2 sequence (Q42670 1-308): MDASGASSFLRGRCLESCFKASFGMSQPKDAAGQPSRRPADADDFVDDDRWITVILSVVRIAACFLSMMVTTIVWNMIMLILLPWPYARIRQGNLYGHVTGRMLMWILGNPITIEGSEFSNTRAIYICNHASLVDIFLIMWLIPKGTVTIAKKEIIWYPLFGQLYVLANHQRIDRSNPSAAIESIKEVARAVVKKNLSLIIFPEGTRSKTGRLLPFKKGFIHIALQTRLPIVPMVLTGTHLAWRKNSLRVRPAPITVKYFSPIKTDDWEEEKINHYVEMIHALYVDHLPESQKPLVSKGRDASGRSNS
Kind of assay: LPAAT activity assay, coconut P2 membrane preparation. In kind it is biochemical. Further details: white endosperm tissue lining the inside of the endocarp can be dissected and collected; from tissue; host or cells: immature coconut endosperm, P2 membrane fraction. The conditions noted are these: for effect on medium-chain LPAAT activity: coconut P2. The procedure: as §1, §2, §3
A more accurate estimation of the LPAAT activity may be obtained by separating the PA product from these contaminants by TLC. The remaining organic phase is applied to a silica TLC plate. Ascending chromatography is carried out for 50 minutes, using the solvent mixture chloroform/pyridine/88% formic acid (50:30:7, v/v). After the plate has dried, the distribution of radioactivity is visualized and quantitated using an AMBIS radioanalytic imaging system (AMBIS Systems Inc., San Diego, Calif.). From prior application of standard lipid components the Rf of the PA is known. The radioactivity associated with the PA spot is expressed as a percentage of the total radioactivity of the assay sample loaded on the plate. This ratio provides an indication of the proportion of the scintillation counts which represent the PA product, and may be used to correct the counts to obtain the total PA radioactivity formed in the assay. […]

The mark [2] stands for this setting: P2 membrane preparation, acyl-CoA donor varied, acceptor 12:0-LPA.

Procedure for bay LPAAT: To assay for LPAAT activity, the sample is incubated with lysophosphatidic acid (LPA) and acyl-coenzyme A (acyl-CoA) substrates in buffered solution. The acyl substituents of the two substrates are chosen to correspond with the specificity of the enzyme being measured. […] The acyl group of one substrate is radioactively labeled in order to detect the product formed. In the examples which follow the acyl substituent of the acyl-CoA substrate is radiolabeled with ^14 C in the carboxyl group. LPAAT activity results in transfer of this acyl group from the acyl-CoA "donor" substrate to the LPA "acceptor" substrate, converting the latter into the product, phosphatidic acid (PA). LPAAT activity is measured as the amount of radioactive product formed in a given assay time. The PA product is radioactive as a result of the transferred radiolabeled acyl group at the central carbon atom of the molecule, and the quantity of PA formed may be determined by measuring radioactivity of the PA fraction. For this measurement, the PA is first separated from the acyl-CoA substrate by solvent partitioning, or by thin-layer chromatography (TLC).

In the case of `CCCCCC(=O)SCCNC(=O)CCNC(=O)[C@H](O)C(C)(C)COP(=O)(O)OP(=O)(O)OC[C@H]1O[C@@H](n2cnc3c(N)ncnc32)[C@H](O)[C@@H]1OP(=O)(O)O` [6:0], in the assay on bay LPAAT (setting [2]), the “LPAAT Activity from Bay” value is 1 pmol PA formed/30 min assay. Besides, the “LPAAT Activity from Rapeseed” value in the assay with Rapeseed LPAAT was 0 pmol PA formed/30 min assay. In addition, the “LPAAT Activity, solubilized coconut LPAAT” value in assay [1] (radioactivity of PA product resolved on TLC, after 30 min assay, S3 reactivated with PLs, acceptor 12:0-LPA) worked out at 1 cpm. Moreover, the “LPAAT Activity from Coconut” value at coconut LPAAT (setting [2]) is listed as 3 pmol PA formed/30 min assay. For `C[C@H](CCC(=O)NCCC[N+](C)(C)CCCS(=O)(=O)[O-])[C@H]1CC[C@H]2[C@@H]3[C@H](O)C[C@@H]4C[C@H](O)CC[C@]4(C)[C@H]3C[C@H](O)[C@]12C` [CHAPS, 3-[(3-cholamidopropyl) -dimethylammonio]-1-propane-sulfonate], the “concentration above which inhibitory in the medium-chain LPAAT assay” value on coconut LPAAT (coconut medium-chain LPAAT assay) was “above 0.1 % (w/v)”. The inhibition at 5000 µg/mL at coconut LPAAT (read-out: LPAAT activity loss) was 50%. As for `[Ca+2]` [Ca^2+], in assay [1], the “effect on LPAAT activity of the coconut S3 preparation” value (shortened to “effect on LPAAT activity”) is “without significant effect” and the “reduction of LPAAT activity of the coconut S3 preparation” value (from here on “reduction”) was not below 50%.

As to `CC(C)(COP(=O)(O)OP(=O)(O)OC[C@H]1O[C@@H](n2cnc3c(N)ncnc32)[C@H](O)[C@@H]1OP(=O)(O)O)[C@@H](O)C(=O)NCCC(=O)NCCS` [CoA], the “effect on medium-chain LPAAT activity” value on coconut LPAAT (0.1 mM in the assay system) is “unaffected”.

For `[Mg+2]` [Mg^2+], in assay [1], the “effect on LPAAT activity” value is “without significant effect” and the “reduction” value is not below 50%.

With `[Mn+2]` [Mn^2+], in assay [1], the “effect on LPAAT activity” value is recorded as “without significant effect” and the “reduction” value is reported as not below 50%. Turning to `CCCCCCCCCCCCOS(=O)(=O)[O-].[Na+]` [SDS, sodium dodecyl sulfate], the “detergent concentration in the assay that inhibits long-chain LPAAT activity completely” value in the assay on bay LPAAT (bay P2 preparation) worked out at 0.002%.

Turning to `CCCCCCCCCCCCCC[N+](C)(C)CCCS(=O)(=O)[O-]` [Zwittergent 3-14], the “detergent concentration in the assay that inhibits long-chain LPAAT activity completely” value in the assay with bay LPAAT (bay P2 preparation) is reported as 0.005%.

With `Nc1ncnc2c1ncn2[C@@H]1O[C@H](COP(=O)(O)OP(=O)(O)OP(=O)(O)O)[C@@H](O)[C@H]1O` [adenosine-5'-triphosphate], the “effect on medium-chain LPAAT activity” value on coconut LPAAT (2 mM in the assay system) is given as “unaffected”. On to `CCCCCCCCO[C@@H]1O[C@H](CO)[C@@H](O)[C@H](O)[C@H]1O` [octyl glucoside], for which, in the assay on bay LPAAT (bay P2 preparation), the “detergent concentration tolerated without complete loss of activity” value turned out to be 0.5% and the “detergent concentration in the assay that inhibits long-chain LPAAT activity completely” value was 0.1%.

Consider `C[C@H](CCC(=O)O)[C@H]1CC[C@H]2[C@@H]3CC[C@@H]4C[C@H](O)CC[C@]4(C)[C@H]3C[C@H](O)[C@]12C` [sodium deoxycholate], for which the “detergent concentration in the assay that inhibits long-chain LPAAT activity completely” value with bay LPAAT (bay P2 preparation) was determined as 0.1%. On to Triton X100, for which, in the assay on bay LPAAT (bay P2 preparation), the “detergent concentration tolerated without complete loss of activity” value turned out to be 0.1% and the “detergent concentration in the assay that inhibits long-chain LPAAT activity completely” value stood at 0.03%. Turning to Tween 20, in the assay on bay LPAAT (bay P2 preparation), the “detergent concentration tolerated without complete loss of activity” value amounted to 2.5% and the “detergent concentration in the assay that inhibits long-chain LPAAT activity completely” value was found to be 1%.

Regarding lysophosphatidylcholine, the “effect on medium-chain LPAAT activity” value at coconut LPAAT (60 μM in the assay system) is “unaffected”.

B1: 18:1-ACP: 18:1 acyl-ACP tested as LPAAT donor substrate (conjugate, UniProt P0A6A8 2-78, looked up)
Acyl carrier protein: STIEERVKKIIGEQLGVKQEEVTNNASFVEDLGADSLDTVELVMALEEEFDTEIPDEEAEKITTVQAAIDYINGHQA
modifications: 18:1 acyl thioester
notes: 18:1 acyl-ACP tested as LPAAT donor substrate
In the case of B1, the “utilization as LPAAT donor substrate instead of 18:1-CoA” value in the assay with bay LPAAT (bay P2 preparation) is “will not significantly utilize”.
